According to US20210252104A1, “ANTIBACTERIAL PEPTIDE MONOMERS AND COMBINATIONS FOR CO-THERAPY” (ARREVUS, INC., priority 2018, published 2021):
pKd: −log10 of the molar value. In brackets after ≈: the same amount, converted by molar mass. Where two headings read alike, the source gives them in different places. Non-standard residues stand in square brackets, D forms with d. Residues, ends and D or L forms follow the SMILES beside them. Ac6c = NC1(C(=O)O)CCCCC1

Legend:
K. pneumoniae K97/09 [1] = test: microbe, parasite or virus in culture; details: Klebsiella pneumoniae
K. pneumoniae K97/09 [2] = test: FIC checkerboard assay (combinations); format: cell-based; details: K. pneumoniae K97/09
[3] = system: A. baumannii strain (BAA-1605); test: microbe, parasite or virus in culture; format: cell-based; details: Acinetobacter baumannii, BAA1605, read-out: MIC
[4] = system: Acinetobacter baumannii BAA-1805 (MACI); test: microbe, parasite or virus in culture; details: BAA1805, read-out: MACI MIC (mg/L)
K. pneumoniae K97/09 [5] = details: K. pneumoniae K97/09; no unit in table (mg/L)
[6] = Post-antibiotic effect (PAE)
Excerpt: Post-antibiotic Effect (PAE).

[7] = target: 70 kDa bacterial heat shock protein DnaK (Escherichia coli, UniProt P0A6Y8); test: Binding to DnaK
Sequence of 70 kDa bacterial heat shock protein DnaK (P0A6Y8 whole entry, the tested form may be a part): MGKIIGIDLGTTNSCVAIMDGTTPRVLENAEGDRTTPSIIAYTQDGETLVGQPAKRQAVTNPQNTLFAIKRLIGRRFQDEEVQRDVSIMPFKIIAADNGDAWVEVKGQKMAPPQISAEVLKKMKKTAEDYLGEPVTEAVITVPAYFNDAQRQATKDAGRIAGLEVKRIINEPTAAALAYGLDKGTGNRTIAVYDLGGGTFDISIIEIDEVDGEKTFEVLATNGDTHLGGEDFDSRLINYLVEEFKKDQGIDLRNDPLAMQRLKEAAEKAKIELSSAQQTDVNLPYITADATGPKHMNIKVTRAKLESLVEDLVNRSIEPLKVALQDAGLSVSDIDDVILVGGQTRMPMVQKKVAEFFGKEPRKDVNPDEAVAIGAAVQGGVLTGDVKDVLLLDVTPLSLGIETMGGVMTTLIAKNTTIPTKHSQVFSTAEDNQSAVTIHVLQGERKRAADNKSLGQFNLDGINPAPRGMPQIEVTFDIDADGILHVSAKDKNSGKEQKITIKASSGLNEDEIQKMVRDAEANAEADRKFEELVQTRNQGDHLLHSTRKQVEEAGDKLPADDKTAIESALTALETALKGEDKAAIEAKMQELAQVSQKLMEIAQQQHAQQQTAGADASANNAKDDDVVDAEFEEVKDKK
Excerpt: The bacterial target of peptide monomers described herein, such as Chex1-Arg20, is believed to be the C-terminal D-E helix of the 70 kDa bacterial heat shock protein DnaK (Otvos et al., J. Med. Chem. 48:5349 (2005); Kragol et al., Biochemistry 40:3016 (2001); Bikker et al., Chem. Biol. Drug Des. 68:148 (2006)). DnaK is a 650-residue protein comprised of 3 distinct domains: (1) N-terminal nucleotide binding domain, (2) C-terminal substrate binding domain and (3) flexible linking domain. […] Peptide monomers described herein bind to DnaK from multiple bacterial species. The MPC of Chex1-Arg20 is reported to be >100 μM, supporting the conclusion that the antibacterial efficacy is […] non-membranolytic. Because DnaK is present in all bacteria, peptide monomers described herein are effective against a wide variety of bacteria and may be effective in combination with all classes of antibiotics.

[8] = system: Burkholderia pseudomallei 1026b; format: in vivo
[9] = Immunogenicity, antibody production by ELISA; format: in vivo; details: mice; 5 mg/kg sc twice in a 3-wk interval; blood 4 weeks after second immunization
A. baumannii HUMC1 = test: Bacteremia synergy assay 3 (murine bacteremia model); format: in vivo
[10] = reported value; cited from earlier work
E. coli 5770 = test: Mice challenged ip with E. coli 5770, blood bacterial counts

C[C@@H](O)[C@H]1C(=O)N2C(C(=O)O)=C(SCCN=CN)C[C@H]12 [imipenem]
MIC (K. pneumoniae K97/09 [1]; K97/09): > 256 mg/L
MIC (K. pneumoniae K97/09 [1]; K97/09, read-out: KPC MIC (mg/L)): > 256 mg/L
ΣFIC (K. pneumoniae K97/09 [2]; antibiotic + ARV-1501): 0.5
MIC of antibiotic + ARV-1501 (K. pneumoniae K97/09 [2]; antibiotic in combination with ARV-1501, no unit in table): 4
MIC [3]: 64 µg/mL (≈ 214 µM)
MIC [4]: 64 mg/L (≈ 214 µM)
MIC of antibiotic alone (K. pneumoniae K97/09 [5]): >256

CC(C)C[C@H](NC(=O)[C@H](Cc1ccc(O)cc1)NC(=O)[C@@H]1CCCN1C(=O)[C@H](CCCNC(=N)N)NC(=O)[C@@H]1CCCN1C(=O)[C@H](CCCCN)NC(=O)[C@H](CC(=O)O)NC(=O)[C@@H]1CCCN1C(=O)[C@H](CCCNC(=N)N)NC(=O)C1(N)CCCCC1)C(=O)N1CCC[C@H]1C(=O)N[C@@H](CCCNC(=N)N)C(=O)N1CCC[C@H]1C(=O)N[C@@H](CCCNC(=N)N)C(=O)N1CCC[C@H]1C(=O)N1CCC[C@H]1C(=O)N[C@@H](CCCNC(=N)N)C(=O)N1CCC[C@H]1C(=O)N[C@H](C(=O)N[C@@H](CCCNC(=N)N)C(N)=O)C(C)C [Example 1, Chex-RPDKPRPYLPRPRPPRPVR-NH2] (H-[Ac6c]RPDKPRPYLPRPRPPRPVR-NH2)
Post-antibiotic effect (PAE) [6]: 14 h
MIC (K. Pneumoniae ATCC 13883): 0.8 ± 0.0 µM (≈ 1.98 µg/mL)
MIC (P. aeruginosa ATCC 47085): 56.3 ± 4.5 µM (≈ 139 µg/mL)
MIC (A. Baumannii ATCC 19606): >100 µM
MIC (E. coli UNT167-1): 32 µg/mL (≈ 12.9 µM)
pKd [7]: 6.39
Median survival (days post-challenge) ([8]; Chex1-Arg20 5 mg/kg im monotherapy): 4 days post-challenge
Rescue of mice ([8]; Chex1-Arg20 monotherapy): failed to rescue any mouse
B. pseudomallei load in survivals (CFU/spleen) ([8]; in vivo, 5 mg/kg): No survival
Number of deaths ([8]; in vivo, 5 mg/kg): 10
Antibody production by ELISA [9]: Neither IgG1, IgG2a, IgG3, IgM, nor IgE are observed
MIC (E. Coli ATCC 29222): 2.6 ± 0.7 µM (≈ 6.44 µg/mL)
Complete response (negative blood culture), test animals (A. baumannii HUMC1; ARV-1502 5.0 mg/kg treatment group): 100%
Negative blood culture of A. baumannii (A. baumannii HUMC1; ARV-1502 1.25-5.0 mg/kg treatment groups): dose-dependent negative blood culture
MPC [10]: > 100 µM
Bacterial counts in blood (E. coli 5770; 2.5 mg/kg ip, 4 h after challenge (before first dose)): 3.68 × 10^7 CFU/mL
Bacterial counts in blood (E. coli 5770; 2.5 mg/kg ip, 8 h after challenge): 4.2 × 10^6 CFU/mL
Bacterial counts in blood (E. coli 5770; 2.5 mg/kg ip, 12 h after challenge): <1.7 × 10^6 CFU/mL
Bacterial counts in blood (E. coli 5770; 2.5 mg/kg ip, 16 h after challenge): <1 × 10^6 CFU/mL
Bacterial counts in blood (E. coli 5770; 2.5 mg/kg ip, 24 h after challenge): <4.8 × 10^5 CFU/mL
Improvement of blood bacterial load (E. coli 5770; 2.5 mg/kg ip, by 24 h): not statistically significant
Reduction of blood bacterial load (E. coli 5770; 2.5 mg/kg ip, during the 12-h treatment period): 1.5-2 log 10 units
Reduction of blood bacterial counts after inoculation (E. coli 5770; 5 mg/kg ip): > 2 log 10 CFU/mL
Bacterial counts in blood (E. coli 5770; 5 mg/kg ip, 4 h after challenge (before first dose)): 3.68 × 10^7 CFU/mL
Bacterial counts in blood (E. coli 5770; 5 mg/kg ip, 8 h after challenge): 4.3 × 10^5 CFU/mL
Bacterial counts in blood (E. coli 5770; 5 mg/kg ip, 12 h after challenge): 1.1 × 10^6 CFU/mL
Bacterial counts in blood (E. coli 5770; 5 mg/kg ip, 16 h after challenge): <1.1 × 10^5 CFU/mL
Bacterial counts in blood (E. coli 5770; 5 mg/kg ip, 24 h after challenge): <1 × 10^3 CFU/mL
Blood sterilization (E. coli 5770; 5 mg/kg ip, at 24 h): complete sterilization of the blood
Time after the last peptide treatment by which the blood was sterilized (E. coli 5770; 10 mg/kg ip): ≤ 4 h
Bacterial counts in blood (E. coli 5770; 10 mg/kg ip, 4 h after challenge (before first dose)): 3.68 × 10^7 CFU/mL
Bacterial counts in blood (E. coli 5770; 10 mg/kg ip, 8 h after challenge): 2.4 × 10^5 CFU/mL
Bacterial counts in blood (E. coli 5770; 10 mg/kg ip, 12 h after challenge): 2.9 × 10^5 CFU/mL
Bacterial counts in blood (E. coli 5770; 10 mg/kg ip, 16 h after challenge): <1 × 10^3 CFU/mL
Bacterial counts in blood (E. coli 5770; 10 mg/kg ip, 24 h after challenge): <1 × 10^3 CFU/mL
